In PMC9937801 (Journal of Pharmaceutical Analysis, 2022):

Target: squalene epoxidase (SQLE) (Homo sapiens, UniProt Q14534)
Assay: SPR
Type: binding

Sequence of squalene epoxidase (SQLE) (Q14534 whole entry): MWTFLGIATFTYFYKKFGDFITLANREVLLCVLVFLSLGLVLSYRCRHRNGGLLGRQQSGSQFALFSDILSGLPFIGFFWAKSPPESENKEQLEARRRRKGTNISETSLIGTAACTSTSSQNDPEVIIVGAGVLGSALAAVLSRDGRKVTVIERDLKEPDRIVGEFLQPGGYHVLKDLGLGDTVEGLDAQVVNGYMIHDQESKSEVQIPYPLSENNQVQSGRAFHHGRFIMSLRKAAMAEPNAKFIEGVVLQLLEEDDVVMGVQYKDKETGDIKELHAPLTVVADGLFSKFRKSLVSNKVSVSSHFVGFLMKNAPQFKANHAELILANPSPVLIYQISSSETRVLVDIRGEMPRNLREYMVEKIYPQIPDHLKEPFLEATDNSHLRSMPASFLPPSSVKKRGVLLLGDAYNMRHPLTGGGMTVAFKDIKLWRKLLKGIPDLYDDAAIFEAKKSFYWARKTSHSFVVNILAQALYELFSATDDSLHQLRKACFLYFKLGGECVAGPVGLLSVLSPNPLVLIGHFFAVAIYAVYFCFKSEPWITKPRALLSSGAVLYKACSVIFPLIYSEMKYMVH

In the case of `C[C@@H]1CC[C@@]2(OC1)O[C@H]1C[C@H]3[C@@H]4CC=C5C[C@@H](O[C@@H]6O[C@H](CO)[C@@H](O[C@@H]7O[C@@H](CO)[C@H](O)[C@H]7O)[C@H](O)[C@H]6O[C@@H]6O[C@@H](C)[C@H](O)[C@@H](O)[C@H]6O)CC[C@]5(C)[C@H]4CC[C@]3(C)[C@H]1[C@@H]2C` [PPI, Polyphyllin I], the Kd is reported as 26.3 µM.
